# Test results reported in PMC3187749, “Discovery of Diverse Small Molecule Chemotypes with Cell-Based PKD1 Inhibitory Activity” (PLoS ONE, 2011).
# Columns and labels:
# Assay type in all cases: biochemical
# PKD2 = target: T1, PKD2 (Homo sapiens, UniProt Q9BZL6); experiment: Radiometric PKD2 in vitro kinase assay; details: preliminary in vitro data
# T1 sequence (Q9BZL6 1-878): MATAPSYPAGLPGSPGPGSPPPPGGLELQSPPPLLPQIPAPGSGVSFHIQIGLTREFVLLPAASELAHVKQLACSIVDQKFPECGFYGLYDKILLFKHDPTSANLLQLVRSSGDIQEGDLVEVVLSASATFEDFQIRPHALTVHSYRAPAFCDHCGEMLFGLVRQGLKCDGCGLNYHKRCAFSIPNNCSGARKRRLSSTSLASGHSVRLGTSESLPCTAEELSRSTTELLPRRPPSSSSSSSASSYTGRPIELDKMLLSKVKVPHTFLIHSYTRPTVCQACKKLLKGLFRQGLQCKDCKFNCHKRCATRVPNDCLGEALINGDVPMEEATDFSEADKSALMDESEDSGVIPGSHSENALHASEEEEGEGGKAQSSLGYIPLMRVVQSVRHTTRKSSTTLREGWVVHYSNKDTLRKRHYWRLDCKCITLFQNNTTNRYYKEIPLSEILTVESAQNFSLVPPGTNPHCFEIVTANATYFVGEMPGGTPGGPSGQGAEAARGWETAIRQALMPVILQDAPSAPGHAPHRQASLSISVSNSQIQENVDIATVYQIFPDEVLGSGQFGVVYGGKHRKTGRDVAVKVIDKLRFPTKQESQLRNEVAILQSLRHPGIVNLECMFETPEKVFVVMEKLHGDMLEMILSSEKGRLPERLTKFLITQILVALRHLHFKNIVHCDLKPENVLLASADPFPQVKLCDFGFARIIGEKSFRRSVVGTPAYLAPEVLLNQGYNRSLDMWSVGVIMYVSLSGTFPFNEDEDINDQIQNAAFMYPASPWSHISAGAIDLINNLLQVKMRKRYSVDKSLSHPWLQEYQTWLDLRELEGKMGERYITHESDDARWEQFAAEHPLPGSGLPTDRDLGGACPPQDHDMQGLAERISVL
# Method: Kinase reactions were initiated with the addition of ATP (50 µM ATP, 1.0 µCi γ-^33P-ATP; Perkin Elmer, Boston, MA) and incubated for 20 min at 30°C. Twenty-five µL of the reaction was spotted onto Whatman P81 filter paper (Whatman Inc., Clifton, NJ). Filter papers were then washed three times in 0.5% phosphoric acid, air-dried, and counted using an LS6500 multi-purpose scintillation counter (Beckman Coulter, Fullerton, CA). IC50 determinations were performed using GraphPad Prism software 5.0. Radiometric PKD2 and PKD3 in vitro kinase assays were performed as previously described.
# recombinant human PKD1 = target: T2, recombinant human PKD1 (Homo sapiens, UniProt Q15139); experiment: ATP competition studies (radiometric PKD1 assay, Michaelis-Menten/Lineweaver-Burk); details: PKD1, ATP 12.5–1000 µM
# T2 construct: His; purchased Millipore (Billerica, MA)
# T2 sequence (Q15139 1-912): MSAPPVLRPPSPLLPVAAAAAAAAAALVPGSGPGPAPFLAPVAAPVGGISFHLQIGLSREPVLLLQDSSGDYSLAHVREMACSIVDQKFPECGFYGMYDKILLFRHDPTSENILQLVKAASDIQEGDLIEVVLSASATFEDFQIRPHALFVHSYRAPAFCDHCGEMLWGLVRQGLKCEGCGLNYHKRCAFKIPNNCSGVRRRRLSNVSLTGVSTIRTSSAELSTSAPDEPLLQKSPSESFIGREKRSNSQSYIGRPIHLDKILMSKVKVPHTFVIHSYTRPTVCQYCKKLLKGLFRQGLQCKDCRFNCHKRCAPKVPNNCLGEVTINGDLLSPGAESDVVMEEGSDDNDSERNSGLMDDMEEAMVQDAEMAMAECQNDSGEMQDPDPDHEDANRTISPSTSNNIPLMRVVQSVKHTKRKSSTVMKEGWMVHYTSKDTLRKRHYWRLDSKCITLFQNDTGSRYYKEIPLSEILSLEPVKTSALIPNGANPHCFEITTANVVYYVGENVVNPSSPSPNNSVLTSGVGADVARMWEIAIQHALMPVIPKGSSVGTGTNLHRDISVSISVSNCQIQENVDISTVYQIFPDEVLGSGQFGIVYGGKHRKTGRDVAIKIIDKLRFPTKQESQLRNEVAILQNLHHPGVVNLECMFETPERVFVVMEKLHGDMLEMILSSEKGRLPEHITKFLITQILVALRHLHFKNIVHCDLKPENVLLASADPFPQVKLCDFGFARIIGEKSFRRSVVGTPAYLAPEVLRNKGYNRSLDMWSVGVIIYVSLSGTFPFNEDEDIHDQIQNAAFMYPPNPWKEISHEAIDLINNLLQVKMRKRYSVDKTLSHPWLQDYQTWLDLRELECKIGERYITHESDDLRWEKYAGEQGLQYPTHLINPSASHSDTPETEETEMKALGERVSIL
# Method: For ATP competition studies, recombinant human PKD1 (1 ng/µL) and Syntide-2 substrate peptide (200 ng/µl) in kinase buffer were incubated with a concentration range of test compound. Kinase reactions were initiated with a concentration range of cold ATP (12.5–1000 µM) supplemented with 1.0 µCi γ-^33P-ATP (Perkin Elmer) and processed as described above. Enzyme inhibition was analyzed and visualized using the Michaelis-Menten and Lineweaver-Burk functions of GraphPad Prism 5.0.
# CDK7 = experiment: IMAP-based CDK7 counter screen; details: concentrations up to 50 µM
# Description: (§1) It was also gratifying that, in general, our novel cell active PKD1 inhibitors appeared to be less promiscuous than PKD1 inhibitors having minimal to no cellular PKD1 inhibitory activity (Table 1). For example, CIDs 755673 and 1893668 display additional confirmed activity in six and seven, respectively, PubChem bioassays while CID 2011756 has confirmed activity in only one additional PubChem bioassay. […] In contrast, the remaining chemotypes registered as confirmed actives in 2–43 additional bioassays (Table 1). Additional chemical similarity searching, focusing on our four novel cell-active PKD1 inhibitory chemotypes, using MetaDrug also supports a comparative lack of promiscuity of these compounds.
# PLK1 = experiment: IMAP-based PLK1 counter screen; details: concentrations up to 50 µM
# Description: as §1
structure (smiles),measurement,setting,value
"O=C(Nc1ccc(CN2CCOCC2)cc1)c1ccc(-c2cccc(Cl)c2)o1 [CID 2011756, 5-(3-chlorophenyl)-N-[4-(morpholin-4-ylmethyl)phenyl]furan-2-carboxamide]",IC50,PKD2,600 ± 100 nM
same,Mechanism of Action (with respect to ATP),recombinant human PKD1,ATP competitive
same,CDK7 kinase inhibition,CDK7,no kinase inhibition
same,PLK1 kinase inhibition,PLK1,no kinase inhibition
